Where two headings read alike, the source gives them in different places.

Data on two compounds can be found in patent US20190177421A1, “CHIMERIC ANTIGEN RECEPTORS AND METHODS FOR USE” (Poseida Therapeutics, Inc., priority 2016, published 2019).

Data set [1] concerns cells. Nature of the data set: Amount of AP1903 needed in vitro for effective signaling of cells. The following applies: calculated with 1600 Da MW. Format: cell-based. On the procedure: The fixed dose of AP1903 for injection used, for example, may be 0.4 mg/kg intravenously infused over 2 hours. The amount of AP1903 needed in vitro for effective signaling of cells is 10-100 nM (1600 Da MW). This equates to 16-160 μg/L or 0.016-1.6 μg/kg (1.6-160 μg/kg). Doses up to 1 mg/kg were well-tolerated in the Phase I study of AP1903 described above. Therefore, 0.4 mg/kg may be a safe and effective dose of AP1903 for this Phase I study in combination with the therapeutic cells.

Data set [2] deals with human pan T-cells containing the iC9 construct. Nature of the data set: iC9 safety switch test: viability by flow cytometry using 7-AAD. In kind it is cell-based. The following applies: 24 hours incubation, 0-1000 nM tested, cells with iC9 safety switch. An excerpt:
Human pan T-cells were nucleofected using an Amaxa 4D nucleofector with one of four piggyBac transposons. Modified T cells receiving the “mock” condition were nucleofected with an empty piggyBac transposon. Modified T cells received either a piggyBac transposon containing a therapeutic agent alone (a sequence encoding a CARTyrin) or a piggyBac transposon containing an integrated iC9 sequence and a therapeutic agent (a sequence encoding a CARTyrin).
To test the iC9 safety switch, each of the four modified T cells were incubated for 24 hours with 0, 0.1 nM, 1 nM, 10 nM, 100 nM or 1000 nM AP1903 (an induction agent for […]). Viability was assessed by flow cytometry using 7-aminoactinomycin D (7-AAD), a fluorescent intercalator, as a marker for cells undergoing apoptosis.

Data set [3] deals with cells. The following applies: cited from earlier work.
For data set [4] the following is noted: cited from earlier work.
Another data set deals with human primary T cells. Nature of the data set: In vitro CARTyrin surface expression in T cells. The following applies: following lentiviral transduction of human primary T cells. Format: cell-based. An excerpt:
Characterization further assays correlations with functionality.

The next data set concerns tumor. The data set can be described thus: In vivo tumor challenge study in mice. An excerpt: FIG. 6 is a schematic diagram depicting an in vivo tumor challenge study timeline using the A08 CARTyrin in mice.
FIG. 6 depicts the treatment schedule for an in vivo study in mice using the A08 CARTyrin. […] FIG. 8 provides a series of photographs further illustrating tumor burden in control animal as well as those treated with P-BCMA-101.

Description for BCMA+ tumor cells: Functionality of CARTyrin-expressing T cells was measured by degranulation against tumor lines.

Regarding `CC[C@H](C(=O)N1CCCC[C@H]1C(=O)O[C@H](CCc1ccc(OC)c(OC)c1)c1cccc(OCC(=O)NCCNC(=O)COc2cccc([C@@H](CCc3ccc(OC)c(OC)c3)OC(=O)[C@@H]3CCCCN3C(=O)[C@@H](CC)c3cc(OC)c(OC)c(OC)c3)c2)c1)c1cc(OC)c(OC)c(OC)c1` (relative stereo) [AP1903, 2-Piperidinecarboxylic acid, 1-[(2S)-1-oxo-2-(3,4,5-trimethoxyphenyl)butyl]-, 1,2-ethanediylbis[imino(2-oxo-2,1-ethanediyl)oxy-3,1-phenylene[(1R)-3-(3,4-dimethoxyphenyl)propylidene]]ester, [2S-[1(R*),2R*[S*[S*[1(R*),2R*]]]]]-(9Cl)], the “amount needed for effective signaling, equated to dose” value with cells [1] was 0.016 to 1.6 µg/kg. Besides, the “amount needed for effective signaling, equated to mass concentration” value in the data set with cells [1] is 16 to 160 µg/L. Moreover, the “concentration at which apoptosis is induced” value in data set [2] was at most 0.1 nM. The “amount needed in vitro for effective signaling of cells” value with cells [3] was 10 to 100 nM. For the same compound, the “plasma level as % of maximal concentration” value is listed as “approximately 18%” in data set [4] (0.5 hours post-dose), about 7% in data set [4] (2 hours post-dose) and about 1% in data set [4] (10 hours post-dose). For the same compound, the well-tolerated doses entry in data set [4] (Phase I study, IV) is “up to 1 mg/kg”. Further, the “mean Cmax” value in data set [4] (single doses infused IV over 2 hours, 0.01-1.0 mg/kg dose range, plasma) is 10 to 1275 ng/mL.

As for “A08 CARTyrin: anti-BCMA CARTyrin (CAR comprising a Centyrin), SEQ ID NO: 21; P-BCMA-101 encodes the A08 anti-BCMA CARTyrin”, the “cytotoxic function (e.g. proliferation)” value in the data set with BCMA+ tumor cells was “strong cytotoxic function”. In the data set on human primary T cells, the surface expression result is given as “high levels of surface expression”. The “tumor burden assessed by M-protein abundance” value in the data set with tumor (day 21) is recorded as “no detectable M-protein”; with tumor (day 21, listed as P-BCMA-101), “not detectable”. In addition, the “tumor burden compared to controls” value in the data set with tumor (photographs) was “reduce tumor burden”. Moreover, in the data set with tumor (to day 21), the survival is 100%.
